According to ChEMBL document CHEMBL3714742, “Pyrimido (4,5-b) indole derivatives” (2003):
Calls of active or inactive are those of the source. No rule for the calls is given here.

Key:
[1] = molecular target: T1, Dual specificity mitogen-activated protein kinase kinase 7 (Homo sapiens, UniProt O14733); assay: Inhibition of GST-tagged human MKK7 expressed in Escherichia coli (BL21(DE3) pLysS) co-expressing human MEKK catalytic domain using biotinylated and GST-tagged rat GST-KN-SAPKalpha substrate incubated for 1 hr by time-resolved fluorescence based assay
T1 sequence (O14733 whole entry): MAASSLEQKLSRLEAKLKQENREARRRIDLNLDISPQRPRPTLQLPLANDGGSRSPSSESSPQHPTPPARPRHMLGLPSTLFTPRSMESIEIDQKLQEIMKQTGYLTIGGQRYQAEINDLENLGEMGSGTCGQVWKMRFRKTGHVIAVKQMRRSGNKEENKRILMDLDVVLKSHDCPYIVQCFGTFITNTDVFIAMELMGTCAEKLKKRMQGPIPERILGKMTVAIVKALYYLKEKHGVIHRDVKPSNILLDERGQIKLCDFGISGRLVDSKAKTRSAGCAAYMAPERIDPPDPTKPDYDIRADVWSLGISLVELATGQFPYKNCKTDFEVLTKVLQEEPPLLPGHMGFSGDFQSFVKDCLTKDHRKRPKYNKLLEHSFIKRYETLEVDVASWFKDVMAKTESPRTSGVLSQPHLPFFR

[2] = test system: Mus musculus; assay: Inhibition of anti-CD3 antibody-induced IL2 production in Balb/c mouse dosed intravenously 5 mins before anti-CD3 antibody injection and measured 2 hrs post-challenge by ELISA; type: functional, organism-based
[3] = test system: Mus musculus; assay: Inhibition of anti-CD3 antibody-induced IL4 production in Balb/c mouse dosed intravenously 5 mins before anti-CD3 antibody injection and measured 2 hrs post-challenge by ELISA; type: functional, organism-based
[4] = test system: Mus musculus; assay: Inhibition of anti-CD3 antibody-induced IFNgamma production in Balb/c mouse dosed intravenously 5 mins before anti-CD3 antibody injection and measured 2 hrs post-challenge by ELISA; type: functional, organism-based
[5] = molecular target: T2, Dual specificity mitogen-activated protein kinase kinase 4 (Homo sapiens, UniProt P45985); assay: Inhibition of GST-tagged human MKK4 expressed in Escherichia coli (BL21(DE3) pLysS) co-expressing human MEKK catalytic domain using biotinylated and GST-tagged rat GST-KN-SAPKalpha substrate incubated for 2 hrs by time-resolved fluorescence based assay
T2 sequence (P45985 whole entry): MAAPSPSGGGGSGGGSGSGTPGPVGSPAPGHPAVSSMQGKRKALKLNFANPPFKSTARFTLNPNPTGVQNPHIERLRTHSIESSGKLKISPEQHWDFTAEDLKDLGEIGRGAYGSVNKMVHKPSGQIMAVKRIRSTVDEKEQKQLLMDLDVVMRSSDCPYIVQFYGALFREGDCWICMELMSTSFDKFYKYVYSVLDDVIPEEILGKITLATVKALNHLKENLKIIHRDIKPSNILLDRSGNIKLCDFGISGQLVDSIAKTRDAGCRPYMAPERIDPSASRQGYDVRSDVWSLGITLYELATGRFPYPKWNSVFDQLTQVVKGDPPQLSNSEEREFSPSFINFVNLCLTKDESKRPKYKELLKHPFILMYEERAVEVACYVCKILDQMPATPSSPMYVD

SMILES | IC50 [1] | inhibition [2] | inhibition [3] | inhibition [4] | IC50 [5]
Cc1nc(NC(C)CO)c2c(n1)[nH]c1ccc(O)cc12 (stereo unspecified) | < 1 µM | Active | Active | Active | < 1 µM
Nc1nc(N2CCCCCC2)c2c(n1)[nH]c1ccc(O)cc12 | < 1 µM | Active | Active | Active | < 1 µM
Cc1nc(N2CCCCC2)c2c(n1)[nH]c1ccc(C(=O)O)cc12 | < 1 µM | Active | Active | Active | < 1 µM
Oc1ccc2[nH]c3ncnc(NC4CCOCC4)c3c2c1 | < 1 µM | Active | Active | Active | 
Nc1nc(N2CCNCC2)c2c(n1)[nH]c1ccc(O)cc12 | 1 µM | Active | Active | Active | 
Nc1nc(NC2CCCCCC2)c2c(n1)[nH]c1ccc(O)cc12 | < 1 µM | Active | Active | Active | 
Oc1ccc2[nH]c3ncnc(N4CCC[C@@H](O)C4)c3c2c1 | < 1 µM | Active | Active | Active | 
COc1ccc2[nH]c3nc(N)nc(N4CCOCC4)c3c2c1 | < 1 µM | Active | Active | Active | 
N[C@H]1CCN(c2ncnc3[nH]c4ccc(O)cc4c23)C1 | < 1 µM | Active | Active | Active | 
OCCNc1ncnc2[nH]c3ccc(O)cc3c12 | < 1 µM | Active | Active | Active | 
NC(=O)c1ccc2[nH]c3ncnc(NCCO)c3c2c1 | < 1 µM | Active | Active | Active | 
OC[C@@H]1CCCN1c1ncnc2[nH]c3ccc(O)cc3c12 | < 1 µM | Active | Active | Active | 
NC(=O)c1ccc2[nH]c3ncnc(N4CCCCC4)c3c2c1 | < 1 µM | Active | Active | Active | 
OCC1(Nc2ncnc3[nH]c4ccc(O)cc4c23)CCCC1 | < 1 µM | Active | Active | Active | 
O=C(O)C1CCN(c2ncnc3[nH]c4ccc(O)cc4c23)CC1 | < 1 µM | Active | Active | Active | 
Cc1nc(N2CCCCC2)c2c(n1)[nH]c1ccc(O)cc12 | < 1 µM | Active | Active | Active | 
Nc1nc(NC2CCCCC2)c2c(n1)[nH]c1ccc(O)cc12 | < 1 µM | Active | Active | Active | 
NC1CCCN(c2ncnc3[nH]c4ccc(O)cc4c23)C1 (stereo unspecified) | < 1 µM | Active | Active | Active | 
Cc1nc(N2CCCCC2CO)c2c(n1)[nH]c1ccc(O)cc12 (stereo unspecified) | 1 µM | Active | Active | Active | 
CC1CCN(c2ncnc3[nH]c4ccc(O)cc4c23)CC1 | < 1 µM | Active | Active | Active | 
NC1CCN(c2ncnc3[nH]c4ccc(O)cc4c23)CC1 | < 1 µM | Active | Active | Active | 
CN(CCO)c1ncnc2[nH]c3ccc(C(N)=O)cc3c12 | < 1 µM | Active | Active | Active | 

SMILES | IC50 [1] | inhibition [2] | inhibition [3] | inhibition [4] | IC50 [5]
NCc1ccc2[nH]c3nc(N)nc(N4CCCCC4)c3c2c1 | 1 µM | Active | Active | Active | 
COc1cc2[nH]c3nc(N)nc(N4CCOCC4)c3c2cc1OC | 1 µM | Active | Active | Active | 
CC(C)(C)OC(=O)NC1CCN(c2ncnc3[nH]c4ccc(O)cc4c23)CC1 | < 1 µM | Active | Active | Active | 
Cc1nc(N2CCCCC2C)c2c(n1)[nH]c1ccc(O)cc12 (stereo unspecified) | < 1 µM | Active | Active | Active | 
OCC1CCCN(c2ncnc3[nH]c4ccc(O)cc4c23)C1 (stereo unspecified) | < 1 µM | Active | Active | Active | 
Nc1nc(N2CCC(Cc3ccccc3)CC2)c2c(n1)[nH]c1ccc(O)cc12 | 1 µM | Active | Active | Active | 
CC1CCCCN1c1nc(N)nc2[nH]c3ccc(O)cc3c12 (stereo unspecified) | < 1 µM | Active | Active | Active | 
Cc1nc(NCCO)c2c(n1)[nH]c1ccc(O)cc12 | 1 µM | Active | Active | Active | 
Cc1nc(N2CCCCC2)c2c(n1)[nH]c1ccc(C(N)=O)cc12 | < 1 µM | Active | Active | Active | < 1 µM
NC(=O)c1ccc2[nH]c3ncnc(N4CCC(N)C4)c3c2c1 (stereo unspecified) | < 1 µM | Active | Active | Active | 
Nc1nc(N2CCCC(O)C2)c2c(n1)[nH]c1ccc(O)cc12 (stereo unspecified) | < 1 µM | Active | Active | Active | 
Cc1ccc2[nH]c3nc(N)nc(N4CCCCC4)c3c2c1 | < 1 µM | Active | Active | Active | 
CN(C)c1ncnc2[nH]c3ccc(O)cc3c12 | < 1 µM | Active | Active | Active | 
Nc1nc(N2CCCCC2)c2c(n1)[nH]c1ccc(Cl)cc12 | 1 µM | Active | Active | Active | 
Nc1nc(N2CCC(O)CC2)c2c(n1)[nH]c1ccc(O)cc12 | < 1 µM | Active | Active | Active | 
O=C(O)CCCCCN1CCN(c2ncnc3[nH]c4ccc(O)cc4c23)CC1 | 1 µM | Active | Active | Active | 
CCC1CCCCN1c1ncnc2[nH]c3ccc(O)cc3c12 (stereo unspecified) | < 1 µM | Active | Active | Active | 
Nc1nc(N2CCC(Br)CC2)c2c(n1)[nH]c1ccc(O)cc12 | < 1 µM | Active | Active | Active | 
NC(=O)c1ccc2[nH]c3ncnc(N(CCO)Cc4ccccc4)c3c2c1 | < 1 µM | Active | Active | Active | 
Cc1nc(N2CCCCCC2)c2c(n1)[nH]c1ccc(O)cc12 | < 1 µM | Active | Active | Active | 
COC1CCN(c2ncnc3[nH]c4ccc(O)cc4c23)CC1 | < 1 µM | Active | Active | Active | 
